# Results taken from US20250188033A1, “INHIBITOR OF REPLICATION PROTEIN A1 OF TRYPANOSOMA BRUCEI AND METHOD OF USE THEREOF” (Research Foundation of the City University of New York, published 2025).
# Like-named read-outs stand apart in the source and are kept apart here.
# Tests used:
# Trypanosoma brucei = test: ALAMARBLUE cell viability / growth assay of T. brucei cells; type: cell-based
# How it was run: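 Parasites seeded at 1×10^3 cells/ml in triplicate, exposed to compound for 72 h (0.0075% DMSO vehicle). AlamarBlue added for 4-6 h, fluorescence read at 560/590 nm; % viable cells calculated from RFU normalized to DMSO control, EC50 from 0.5-50 μM series.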
# HEK293 cells = test: ALAMARBLUE cell viability assay of human cells (HEK293); type: cell-based
# Protocol: (§1) Human cell lines, HeLa and HEK293 were maintained in Dulbecco's modified MEM (D-MEM, GIBCO) supplemented with 10% fetal bovine serum (GIBCO) at 37° C. with 5% CO2.
# (§2) To determine the inhibitory effect of JC-229 on human cells, HeLa and HEK293 cells were suspended in 180 μl D-MEM with 10% FBS and plated at a density of 2×10^4 cells/ml in triplicate. Cells were adhered overnight, and the medium was replaced, and cells were then incubated for 72 hours with increasing concentrations of JC-229 (0.5 μM to 50 μM) and cell viability was determined using the ALAMARBLUE® dye as described above. Percent viability was plotted using GraphPad Prism software. […] The EC50 values were estimated using the concentration of JC-229 that cause 50% reduction of cell viability (inhibitor vs. normalized response, variable slope).
# HeLa cells = test: ALAMARBLUE cell viability assay of human cells (HeLa); type: cell-based
# Protocol: as §1, §2
# T. brucei cells [1] = test: Cell-cycle analysis by PI staining and flow cytometry; type: cell-based, Trypanosoma brucei; details: 10 μM
# Protocol: (§3) Without wishing to be bound to any particular theory, if JC-229 indeed binds and inhibits the functions of TbRPA1, as predicted from the structural model, JC-229-treated trypanosome cells should show similar phenotypes to TbRPA1-depleted cells without affecting TbRPA1 protein levels. Wild-type T. brucei cells was treated with 10 μM JC-229 for 48 hours and the cell-cycle profile and efficiency of DNA synthesis was monitored. TbRPA1, γH2A, VSG3, and Tubulin protein levels were also monitored (FIG. 3A, FIG. 3B, FIG. 3C and FIG. 3D).
# About 10 million cells were collected after tetracycline induction or after JC-229 treatment. Cells were fixed with ice-cold 70% ethanol and incubated with 50 μg/ml PI (Sigma-Aldrich) and 200 μg/ml RNase A (Sigma-Aldrich) in 1×PBS (Corning) at 37° C. for 30 min in the dark. Samples were analyzed by flow cytometry (FACSVia, BD Biosciences) and FLOWJO®.
# T. brucei cells [2] = test: Immunoblotting of TbRPA1, γH2A and VSG3 protein levels; type: cell-based, Trypanosoma brucei; details: 10 μM; for fold increase in the levels of γH2A: relative to untreated, normalized to tubulin
# Protocol: as §3
# Cells were harvested at indicated time points and suspended in Laemmli buffer (Bio-Rad) at 0.25 million cells per μl. Denatured proteins from whole cells were separated on a 4-20% gradient SDS-PAGE gel (BioRAD) and transferred to nitrocellulose membrane (GE Healthcare). The membranes were probed with polyclonal antibodies against TbRPA1 (a gift from Bibo Li laboratory) or γH2A (generated by ABclonal for this study), or monoclonal mouse antibodies against VSG3 (Antibody and Bioresource Core facility, MSKCC) or tubulin (Sigma) in 1× PBS with 0.1% Tween 20 and 1% milk (BioRAD) at 4° C. overnight. The membranes were then incubated with secondary antibodies conjugated with Horseradish Peroxidase (HRP) (GE healthcare) for the detection of corresponding proteins using chemiluminescence (Hyglo from Denville Scientific, ChemiDoc Imaging System from BioRAD).
# TbRPA1 DBD-AB F64A [3] = biological target: T1, TbRPA1 DBD-AB F64A (Trypanosoma brucei, UniProt Q384B5 Q384B5:1-257, F64A); test: MST; no ssDNA-binding activity; details: tags: 6xHis, pET28a, E. coli; label: 5' Cy5
# TbRPA1 DBD-AB W188A [4] = biological target: T2, TbRPA1 DBD-AB W188A (Trypanosoma brucei, UniProt Q384B5 Q384B5:1-257, W188A); test: MST; no ssDNA-binding activity; details: tags: 6xHis, pET28a, E. coli; label: 5' Cy5
# [5] = biological target: T3, TbRPA complex (RPA1/RPA2/RPA3) (Trypanosoma brucei, UniProt Q384B5;Q57ZN9;Q38DK0 Q384B5:1-463,Q57ZN9:1-255,Q38DK0:1-127); test: MST; 10 mM MgCl2, 10 mM NaCl, Tris pH 7.5, 22 C; JC-229 inhibits binding, IC50 24.5 nM; details: tags: 6xHis-thrombin site on RPA1 (pSR8), E. coli; one complex per dT32 stated; label: 5' Cy5
# T3 sequence 1: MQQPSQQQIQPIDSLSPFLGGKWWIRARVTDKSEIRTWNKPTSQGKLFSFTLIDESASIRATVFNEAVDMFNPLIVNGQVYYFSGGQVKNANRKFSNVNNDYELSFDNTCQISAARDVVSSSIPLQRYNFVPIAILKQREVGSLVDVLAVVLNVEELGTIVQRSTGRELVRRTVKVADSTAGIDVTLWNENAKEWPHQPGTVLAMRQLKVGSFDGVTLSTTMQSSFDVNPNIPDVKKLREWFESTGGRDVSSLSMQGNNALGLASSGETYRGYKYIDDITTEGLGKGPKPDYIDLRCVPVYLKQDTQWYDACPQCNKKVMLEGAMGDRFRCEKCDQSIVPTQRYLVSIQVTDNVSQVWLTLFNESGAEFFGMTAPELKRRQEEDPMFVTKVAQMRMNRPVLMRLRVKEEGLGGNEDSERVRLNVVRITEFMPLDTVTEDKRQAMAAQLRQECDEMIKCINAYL
# T3 sequence 2: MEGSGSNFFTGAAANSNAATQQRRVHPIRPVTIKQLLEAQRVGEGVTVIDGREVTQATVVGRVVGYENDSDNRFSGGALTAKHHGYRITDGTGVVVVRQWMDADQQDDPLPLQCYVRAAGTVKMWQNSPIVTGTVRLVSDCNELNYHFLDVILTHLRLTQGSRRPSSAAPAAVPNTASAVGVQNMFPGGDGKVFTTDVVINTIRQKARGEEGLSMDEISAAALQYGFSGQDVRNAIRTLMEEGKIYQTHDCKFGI
# T3 sequence 3: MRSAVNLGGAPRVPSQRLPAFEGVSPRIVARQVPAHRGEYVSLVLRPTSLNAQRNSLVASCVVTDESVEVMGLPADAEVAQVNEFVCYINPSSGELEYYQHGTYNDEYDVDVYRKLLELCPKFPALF
# Protocol: FIG. 5C are graphs showing recombinant TbRPA complex was 2-fold serially diluted from 400 nM concentration and these were incubated with 10 nM 5′Cy5-dT₃₂. Binding was analyzed by MST (left). Serial dilutions of JC-229 were pre-incubated with 25 nM TbRPA complex and then with 10 nM 5′Cy5-dT₃₂. Inhibition of binding was analyzed by MST (right).
# (§4) MST experiments were performed on Monolith NT.115 instrument with red filter (Nanotemper Technologies) in MST binding buffer (20 mM Tris, pH 7.5, 10 mM NaCl, 10 mM MgCl₂, 2 mM DTT, 10% glycerol and 0.1 mg/ml BSA) using premium-coated capillaries (Nanotemper Technologies). MST experiments were performed with 40% LED power and 40% MST power at 22° C.
# (§5) ssDNA-binding assay: The 5′Cy5 labeled-oligo dT32 was purchased from IDT. Increasing concentrations of purified protein (from 0.06 nM to 2,000 nM for DBD-AB proteins; from 0.02 nM to 800 nM for RPA complexes) were incubated with equal volume (10 μl) of 5′Cy5-labeld oligo dT₃₂ (10 nM final concentration) in MST binding buffer for 15 min at room temperature. Samples were then loaded into MST capillaries.
# HsRPA1 DBD-AB = HsRPA1 DBD-AB (Homo sapiens, UniProt P27694 P27694:181-422); test: MST; 10 mM MgCl2, 10 mM NaCl, Tris pH 7.5, 22 C; not inhibited by JC-229; details: tags: 6xHis, pET28a (pSR15), E. coli; label: 5' Cy5
# Protocol: as §4, §5
# LmexRPA1 DBD-AB = biological target: T4, LmexRPA1 DBD-AB (Leishmania mexicana, UniProt E9B001 E9B001:1-258); test: as above; details: tags: N-terminal 6xHis, pET28a (pSR16), E. coli; label: 5' Cy5
# T4 sequence: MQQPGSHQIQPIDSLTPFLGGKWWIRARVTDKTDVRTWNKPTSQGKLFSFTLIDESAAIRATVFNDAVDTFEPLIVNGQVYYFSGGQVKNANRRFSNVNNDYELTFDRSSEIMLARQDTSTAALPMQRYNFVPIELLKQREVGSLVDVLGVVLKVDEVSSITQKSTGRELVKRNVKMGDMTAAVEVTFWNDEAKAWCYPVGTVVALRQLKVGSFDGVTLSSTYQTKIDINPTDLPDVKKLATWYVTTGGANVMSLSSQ
# Protocol: as §4, §5
# TcRPA1 DBD-AB = biological target: T5, TcRPA1 DBD-AB (Trypanosoma cruzi, UniProt Q4DXC9 Q4DXC9:1-256); test: MST; p171-172 quotes 12.6 nM for the same WT protein; 10 mM MgCl2, 22 C; not inhibited by JC-229; details: tags: N-terminal 6xHis, pET28a (pSR13), E. coli; label: 5' Cy5
# T5 sequence: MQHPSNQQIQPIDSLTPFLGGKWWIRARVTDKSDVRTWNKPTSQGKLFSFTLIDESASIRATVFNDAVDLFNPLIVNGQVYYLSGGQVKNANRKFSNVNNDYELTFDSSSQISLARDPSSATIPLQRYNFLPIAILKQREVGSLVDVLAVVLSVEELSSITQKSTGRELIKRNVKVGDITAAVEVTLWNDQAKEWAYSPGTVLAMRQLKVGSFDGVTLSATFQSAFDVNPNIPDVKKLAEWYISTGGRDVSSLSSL
# Protocol: as §4, §5
# TcRPA1 DBD-AB T105S = TcRPA1 DBD-AB T105S (Trypanosoma cruzi, UniProt Q4DXC9 Q4DXC9:1-256, T105S); test: MST; 10 mM MgCl2, 22 C; JC-229 IC50 159x10^3 nM; details: tags: N-terminal 6xHis, pET28a, E. coli; label: 5' Cy5
# TbRPA1 DBD-AB F64A [6] = biological target: T1, TbRPA1 DBD-AB F64A; test: EMSA; no ssDNA-binding activity; details: tags: 6xHis, pET28a, E. coli; label: 5' IRDye800
# TbRPA1 DBD-AB W188A [7] = biological target: T2, TbRPA1 DBD-AB W188A; test: EMSA; no ssDNA-binding activity; details: tags: 6xHis, pET28a, E. coli; label: 5' IRDye800
# TbRPA1 DBD-AB S105T = TbRPA1 DBD-AB S105T (Trypanosoma brucei, UniProt Q384B5 Q384B5:1-257, S105T); test: EMSA; 10 mM MgCl2, RT; not inhibited by JC-229; details: tags: 6xHis, pET28a, E. coli; label: 5' IRDye800
# Chain of HsRPA1 DBD-AB (P27694 181-422, one chain of several): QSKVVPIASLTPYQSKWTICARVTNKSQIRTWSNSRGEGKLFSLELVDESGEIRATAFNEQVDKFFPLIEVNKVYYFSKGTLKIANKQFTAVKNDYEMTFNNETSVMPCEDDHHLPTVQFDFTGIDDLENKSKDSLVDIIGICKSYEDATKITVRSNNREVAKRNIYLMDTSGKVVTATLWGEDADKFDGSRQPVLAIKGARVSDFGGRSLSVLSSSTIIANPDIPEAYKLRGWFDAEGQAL
molecule,measurement,setting,value
"Cc1ccc(C(=O)Nc2ccc(Cl)c(Cl)c2)cc1S(=O)(=O)Nc1ccc(Cl)c(Cl)c1 [JC-229, N-(3,4-dichlorophenyl)-3-(N-(3,4-dichlorophenyl)sulfamoyl)-4-methylbenzamide]",EC50,"Trypanosoma brucei; Trypanosoma brucei, 72 h, read-out: EC50 (T. brucei viability), T. brucei, 0.5 to 50 μM, 72 hours",6.6 µM
same,inhibition at 2 µM,"Trypanosoma brucei; Trypanosoma brucei, T. brucei, 2 μM, 72 hours, normalized to DMSO control",24%
same,inhibition at 5 µM,"Trypanosoma brucei; Trypanosoma brucei, T. brucei, 5 μM, 72 hours, normalized to DMSO control",76%
same,inhibition at 10 µM,"Trypanosoma brucei; Trypanosoma brucei, T. brucei, 10 μM, 72 hours, normalized to DMSO control",100%
same,EC50,"Trypanosoma brucei; read-out: EC50 (T. brucei viability), T. brucei, 0.5 to 50 μM, 72 hours",6.5 µM
same,EC50,"HEK293 cells; HEK293, 0.5 to 50 μM, 72 hours, estimated, curve did not reach bottom plateau",18.4 µM
same,inhibition at 6.5 µM,"HEK293 cells; HEK293, at 6.5 μM (EC50 to T. brucei)",< 20%
same,inhibition at 50 µM,"HEK293 cells; HEK293, at 50 μM, the maximum concentration",< 100%
same,EC50,"HeLa cells; 0.5 to 50 μM, 72 hours, estimated, curve did not reach bottom plateau",32.1 µM
same,inhibition at 6.5 µM,HeLa cells; at 6.5 μM (EC50 to T. brucei),< 20%
same,inhibition at 50 µM,"HeLa cells; at 50 μM, the maximum concentration",< 100%
same,sub-G1 population,T. brucei cells [1]; 32-hour time point,~45%
same,cells that lost the bulk of their DNA,T. brucei cells [1]; by 48 hours,~97%
same,fold increase in the levels of γH2A,T. brucei cells [2]; 16 hours,approximately 5 fold
same,fold increase in VSG3 protein levels,T. brucei cells [2]; 24 hours,~3 fold
same,fold increase in the levels of γH2A,T. brucei cells [2]; 24 hours,~7 fold
Cc1ccc(C(=O)Nc2ccc(Cl)c(Cl)c2)cc1S(=O)(=O)C1CCCN(C(=O)OC(C)(C)C)C1 (centres unmarked) [Jc-950],% Inhibition @2 μM,"Trypanosoma brucei; T. brucei, 2 μM, 72 hours, normalized to DMSO control",28%
same,% Inhibition @5 μM,"Trypanosoma brucei; T. brucei, 5 μM, 72 hours, normalized to DMSO control",3%
"CCOc1ccc2cc(C3CC(c4ccc(Br)cc4)=NN3C(=O)CCC(=O)O)c(Cl)nc2c1 (centres unmarked) [TDRL-505, reference compound]",effect on T. brucei proliferation,Trypanosoma brucei; even at 60 μM,no effect
TTTTTTTTTTTTTTTTTTTTTTTTTTTTTTTT (ssDNA) [5'Cy5-dT32],binding result,TbRPA1 DBD-AB F64A [3],no binding
same,binding result,TbRPA1 DBD-AB W188A [4],no binding
same,Kd,[5],0.0132 µM
same,Kd,HsRPA1 DBD-AB,0.048 µM
same,Kd,LmexRPA1 DBD-AB,0.0126 µM
same,Kd,TcRPA1 DBD-AB,0.0132 µM
same,Kd,TcRPA1 DBD-AB T105S,0.0524 µM
TTTTTTTTTTTTTTTTTTTTTTTTTTTTTTTT (ssDNA) [5'IRDye800-dT32],binding result,TbRPA1 DBD-AB F64A [6],no binding
same,binding result,TbRPA1 DBD-AB W188A [7],no binding
same,binding result,TbRPA1 DBD-AB S105T,binds
